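The compound was tested at five concentrations on cells cultured in 96-well plates, with a 48-hour exposure period. At the GI50, growth is halved.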 The source made the active and inactive calls. Rule as the data show it: active = GI50 up to about 1.1 µM and inactive = higher.
What was measured:
Assay in all cases: NCI anticancer screen, dose series, 48 h
[1] = tested on: CAKI-1
[2] = tested on: COLO 205
[3] = tested on: EKVX
[4] = tested on: HCC 2998
[5] = tested on: HOP-62
[6] = tested on: HOP-92
[7] = tested on: MCF7
[8] = tested on: MDA-MB-231
[9] = tested on: Malme-3M
[10] = tested on: NCI-H23
[11] = tested on: OVCAR-4
[12] = tested on: OVCAR-8
[13] = tested on: RPMI-8226
[14] = tested on: SF-268
[15] = tested on: SK-MEL-2
[16] = tested on: SK-MEL-5
[17] = tested on: SN12C
[18] = tested on: SR
[19] = tested on: U-251
[20] = tested on: UO-31

Measured: GI50

CC(=O)N(C(C)=O)c1cc2c3c(c1)CCCN3CCC2
inactive: [1] > 10 µM | [2] > 10 µM | [3] > 10 µM | [4] > 10 µM | [5] > 10 µM | [6] > 10 µM | [7] > 10 µM | [8] > 10 µM | [9] > 10 µM | [10] > 10 µM | [11] > 10 µM | [12] > 10 µM | [13] > 10 µM | [14] > 10 µM | [15] > 10 µM | [16] > 10 µM | [17] > 10 µM | [18] > 10 µM | [19] > 10 µM

Cc1cc(S(=O)(=O)N2CCNNC2=O)c(S)cc1Cl
inactive: [1] 33.5 µM | [2] > 100 µM | [3] > 100 µM | [4] > 100 µM | [6] 48.4 µM | [7] 77.3 µM | [8] 23.8 µM | [9] 17.7 µM | [11] > 100 µM | [12] > 100 µM | [13] 71.4 µM | [14] > 100 µM | [15] > 100 µM | [16] > 100 µM | [17] > 100 µM | [18] > 100 µM | [19] > 100 µM | [20] > 100 µM

Cn1c(=O)c2[nH]c(-n3nc(-c4ccccc4)cc3N)nc2n(C)c1=O
inactive: [1] 2.12 µM | [2] 7.05 µM | [3] 5.42 µM | [4] 8.67 µM | [5] 12.5 µM | [6] 6.46 µM | [7] 13.8 µM | [8] 10.6 µM | [9] 13.7 µM | [11] 2.91 µM | [12] 4.85 µM | [13] 12.6 µM | [14] 11.3 µM | [15] 14.6 µM | [16] 5.38 µM | [17] 4.6 µM | [18] 4.31 µM | [19] 6.78 µM | [20] 6.89 µM

Cc1nc(N)c(N2CCN(C(=O)O)CC2)c(O)n1
inactive: [2] > 100 µM | [3] > 100 µM | [4] > 100 µM | [5] > 100 µM | [6] > 100 µM | [7] > 100 µM | [8] > 100 µM | [9] > 100 µM | [10] > 100 µM | [11] > 100 µM | [12] > 100 µM | [13] > 100 µM | [14] > 100 µM | [15] > 100 µM | [17] > 100 µM | [18] > 100 µM | [19] > 100 µM | [20] > 100 µM

COc1ccc(/C=C/C(=O)N[C@@H]2C(=O)N3[C@@H]2SC(C)(C)[C@@H]3C(=O)O)cc1
inactive: [1] > 100 µM | [2] > 100 µM | [3] > 100 µM | [4] > 100 µM | [5] > 100 µM | [6] 47.8 µM | [7] > 100 µM | [8] > 100 µM | [10] > 100 µM | [11] > 100 µM | [12] > 100 µM | [13] > 100 µM | [14] > 100 µM | [15] > 100 µM | [16] > 100 µM | [17] > 100 µM | [18] > 100 µM | [19] > 100 µM | [20] > 100 µM

CC(NC(=O)c1ccc(NP(=O)(OCc2ccc([N+](=O)[O-])o2)N(C)CCCCCl)cc1)c1ccc(OCC2CCCCC2)c(C(N)=O)c1 (stereo not drawn)
inactive: [1] 26.4 µM | [2] 10.9 µM | [4] 11.4 µM | [5] 16.9 µM | [6] 2.95 µM | [7] 3.15 µM | [8] 14.9 µM | [10] 16.9 µM | [11] 12.2 µM | [12] 31.6 µM | [13] 4.86 µM | [14] 13.3 µM | [15] 16.1 µM | [16] 4.56 µM | [17] 18.9 µM | [18] 10.5 µM | [19] 19.4 µM | [20] 43.4 µM

CCCC(=O)OC1=C(c2ccccc2)Sc2ccccc2-n2cccc21
inactive: [1] > 10 µM | [2] > 10 µM | [3] > 10 µM | [4] > 10 µM | [5] > 10 µM | [6] > 10 µM | [7] > 10 µM | [8] > 10 µM | [9] > 10 µM | [10] > 10 µM | [11] > 10 µM | [12] > 10 µM | [13] > 10 µM | [14] > 10 µM | [16] > 10 µM | [17] > 10 µM | [18] > 10 µM
